Laboratory results reported in ChEMBL document CHEMBL4373714, “Absolute Configuration and Biological Activities of Meroterpenoids from an Endophytic Fungus of Lycium barbarum” (J Nat Prod, 2019).
Values after ≈ are worked out from the molar mass of the structure shown. Where a name gives a salt, the structure may show the parent alone.

How the values were obtained:
[1] = tested on: MDA-MB-231; assay: Antiproliferative activity against human MDA-MB-231 cells assessed as reduction in cell viability at 10 uM after 24 hrs by CCK8 assay relative to control; format: functional; settings: MDA-MB-231, 24 h
[2] = tested on: NCI-H226; assay: Antiproliferative activity against human NCI-H226 cells assessed as reduction in cell viability at 10 uM after 24 hrs by CCK8 assay relative to control; format: functional; settings: NCI-H226, 24 h
[3] = tested on: MDA-MB-231; assay: Antiproliferative activity against human MDA-MB-231 cells assessed as reduction in cell viability after 24 hrs by CCK8 assay; format: functional, cell-based; settings: MDA-MB-231, 24 h
[4] = tested on: NCI-H226; assay: Antiproliferative activity against human NCI-H226 cells assessed as reduction in cell viability after 24 hrs by CCK8 assay; format: functional, cell-based; settings: NCI-H226, 24 h
[5] = tested on: Pseudomonas viridiflava; assay: Antibacterial activity against Pseudomonas viridiflava assessed as inhibition of bacterial growth after 24 hrs by microdilution method; format: functional
[6] = tested on: Clostridium perfringens; assay: Antibacterial activity against Clostridium perfringens assessed as inhibition of bacterial growth after 24 hrs by microdilution method; format: functional
[7] = tested on: Bacillus subtilis; assay: Antibacterial activity against Bacillus subtilis assessed as inhibition of bacterial growth after 24 hrs by microdilution method; format: functional
[8] = tested on: Escherichia coli; assay: Antibacterial activity against Escherichia coli assessed as inhibition of bacterial growth after 24 hrs by microdilution method; format: functional
[9] = tested on: Staphylococcus aureus; assay: Antibacterial activity against Staphylococcus aureus assessed as inhibition of bacterial growth after 24 hrs by microdilution method; format: functional

`CC[C@H](C)C(=O)[C@@H](C)C1=C(OC)C(=O)C2=C(O[C@]3(C)CC[C@H]4O[C@@H](C(C)(C)O)CC[C@]4(C)[C@H]3C2)C1=O` gave an inhibition at 10 µM [1] of less than 50% and an inhibition at 10 µM [2] of less than 50%.
Compound `CC[C@H](C)C(=O)[C@@H](C)C1=C(OC)C(=O)C2=C(O[C@]3(C)CC[C@H]4O[C@@H](C(C)(C)O)CC[C@]4(C)[C@H]3[C@@H]2O)C1=O` has an IC50 [3] of 9.5 µM and an IC50 [4] greater than 10 µM.
`C/C=C(\C)C(=O)[C@@H](C)c1cc(O)c2c(c1O)O[C@]1(C)CC[C@H]3O[C@@H](C(C)(C)O)CC[C@]3(C)[C@H]1[C@@H]2O` gave an IC50 [3] of 6.7 µM and an IC50 [4] of 5.5 µM.
`CC[C@H](C)C(=O)[C@@H](C)c1cc(O)c2c(c1O)O[C@]1(C)CC[C@H]3O[C@@H](C(C)(C)O)CC[C@]3(C)[C@H]1[C@@H]2O` showed an inhibition at 10 µM [1] of less than 50% and an inhibition at 10 µM [2] of less than 50%.
In the case of `CC[C@@H](C)C(=O)[C@@H](C)c1cc(O)c2c(c1O)O[C@]1(C)CC[C@H]3O[C@@H](C(C)(C)O)CC[C@]3(C)[C@H]1C2=O`, the inhibition at 10 µM [1] is reported as less than 50% and the inhibition at 10 µM [2] is reported as less than 50%.
`C/C=C(\C)[C@@H](OC(C)=O)[C@@H](C)C1=CC(=O)C2=C(O[C@]3(C)CC[C@H]4O[C@@H](C(C)(C)O)CC[C@]4(C)C3=C2)C1=O` was tested, and the IC50 [3] was 5.6 µM and the IC50 [4] was greater than 10 µM.
Compound `CCC(C)C(=O)c1coc2c3c(c(O)cc12)[C@@H](O)[C@@H]1[C@@]2(C)CC[C@H](C(C)(C)O)O[C@@H]2CC[C@@]1(C)O3` (stereo not given in full) has an inhibition at 10 µM [1] of less than 50% and an inhibition at 10 µM [2] of less than 50%.
`CC[C@@H](C)[C@@H](OC(C)=O)[C@@H](C)c1cc(O)c2c(c1O)O[C@]1(C)CC[C@H]3O[C@@H](C(C)(C)O)CC[C@]3(C)[C@H]1C2=O` gave an inhibition at 10 µM [1] of less than 50% and an inhibition at 10 µM [2] of less than 50%.
`C/C=C(\C)C(=O)[C@@H](C)C1=C(OC)C(=O)C2=C(O[C@]3(C)CC[C@H]4O[C@@H](C(C)(C)O)CC[C@]4(C)[C@H]3[C@@H]2O)C1=O` gave an IC50 [3] of 7.5 µM and an IC50 [4] greater than 10 µM.
In the case of `CC[C@H](C)[C@@H](OC(C)=O)[C@@H](C)C1=C(N)C(=O)C2=C(O[C@]3(C)CC[C@H]4O[C@@H](C(C)(C)O)CC[C@]4(C)[C@H]3[C@@H]2O)C1=O`, the inhibition at 10 µM [1] is reported as less than 50% and the inhibition at 10 µM [2] is reported as less than 50%.
`C/C=C(\C)C(=O)[C@@H](C)C1=CC(=O)C2=C(O[C@]3(C)CC[C@H]4O[C@@H](C(C)(C)O)CC[C@]4(C)[C@H]3[C@@H]2O)C1=O` gave an IC50 [3] of 8.5 µM and an IC50 [4] greater than 10 µM.
Work on `CC[C@H](C)[C@@H](OC(C)=O)[C@@H](C)C1=CC(=O)C2=C(O[C@]3(C)CC[C@H]4O[C@@H](C(C)(C)O)CC[C@]4(C)[C@H]3[C@@H]2O)C1=O` [COCHLIOQUINONE A] yielded an inhibition at 10 µM [1] of less than 50% and an inhibition at 10 µM [2] of less than 50%.
In the case of `CC[C@H](C)C(=O)[C@@H](C)C1=CC(=O)C2=C(O[C@]3(C)CC[C@H]4O[C@@H](C(C)(C)O)CC[C@]4(C)[C@H]3C2)C1=O` [COCHLIOQUINONE B], the MIC [5] is reported as 26 µM (≈ 12.3 µg/mL), the MIC [6] is reported as 26 µM (≈ 12.3 µg/mL) and the inhibition at 10 µM [1] is reported as less than 50%. It also gave an MIC [7] of 26 µM (≈ 12.3 µg/mL) and an inhibition at 10 µM [2] of less than 50%.
Compound `CC[C@H](C)C(=O)[C@@H](C)C1=CC(=O)C2=C(O[C@]3(C)CC[C@H]4O[C@@H](C(C)(C)O)CC[C@]4(C)[C@H]3[C@@H]2O)C1=O` [COCHLIOQUINONE C] has an MIC [5] of 26 µM (≈ 12.7 µg/mL), an MIC [6] of 26 µM (≈ 12.7 µg/mL) and an inhibition at 10 µM [1] of less than 50%. It also gave an MIC [7] of 26 µM (≈ 12.7 µg/mL) and an inhibition at 10 µM [2] of less than 50%.
In the case of `C/C=C(\C)C(=O)[C@@H](C)C1=CC(=O)C2=C(O[C@]3(C)CC[C@H]4O[C@@H](C(C)(C)O)CC[C@]4(C)[C@H]3C2)C1=O` [COCHLIOQUINONE D], the IC50 [3] is reported as 7.1 µM and the IC50 [4] is reported as 6.9 µM.
`COc1cccc2c1C(=O)c1c(O)c3c(c(O)c1C2=O)C[C@@](O)(C(=O)CO)C[C@@H]3O[C@H]1C[C@H](N)[C@H](O)[C@H](C)O1` [DOXORUBICIN HYDROCHLORIDE] gave an IC50 [3] of 0.3 µM and an IC50 [4] of 0.3 µM.
`CC[C@H](C)[C@@H](OC(C)=O)[C@@H](C)c1cc(O)c2c(c1O)O[C@]1(C)CC[C@H]3O[C@@H](C(C)(C)O)CC[C@]3(C)[C@H]1C2=O` [ISOCOCHLIOQUINONE A] gave an inhibition at 10 µM [1] of less than 50% and an inhibition at 10 µM [2] of less than 50%.
`CC[C@H](C)C(=O)[C@@H](C)c1cc(O)c2c(c1O)O[C@]1(C)CC[C@H]3O[C@@H](C(C)(C)O)CC[C@]3(C)[C@H]1C2=O` [ISOCOCHLIOQUINONE C] showed an MIC [5] of 26 µM (≈ 12.7 µg/mL), an MIC [6] of 26 µM (≈ 12.7 µg/mL) and an inhibition at 10 µM [1] of less than 50%. It also gave an MIC [7] of 26 µM (≈ 12.7 µg/mL) and an inhibition at 10 µM [2] of less than 50%.
Compound `CN(C)[C@@H]1C(O)=C(C(N)=O)C(=O)[C@@]2(O)C(O)=C3C(=O)c4c(O)cccc4[C@@](C)(O)[C@H]3C[C@@H]12` [TETRACYCLINE] has an MIC [5] of 3.5 µM (≈ 1.56 µg/mL), an MIC [8] of 3.5 µM (≈ 1.56 µg/mL) and an MIC [6] of 3.5 µM (≈ 1.56 µg/mL). For the same compound, the MIC [7] was 3.5 µM (≈ 1.56 µg/mL) and the MIC [9] was 3.5 µM (≈ 1.56 µg/mL).
